Measurements as given in US20250136652A1, “FUSION PROTEIN FOR TARGETING RECOMBINANT PROTEINS FOR DEGRADATION” (The Regents of the University of California, priority 2022, published 2025).

What was measured:
[1] = tested on: 4-1BB variant second-generation ('BBz') CARs that target CD19 or HER2; assay: Surface CAR expression in Jurkat T cells by anti-myc antibody stain and flow cytometry; type: cell-based; settings: 72 hours after removal of lentivirus
Protocol: FIG. 4A: Tethering of STUD to plasma membrane allows for functional knockdown for second-generation chimeric antigen receptors (CAR). Cartoon diagram of membrane tethered STUD (‘memSTUD’) and non-functional (‘NF’) control relative to original ‘soluble’ STUD design. The DNA cartoon represents the plasmid used in experiments done in this panel. (RRRG (SEQ ID NO:32); TRGN (SEQ ID NO:50)).
FIG. 4B: Plasmid diagramed in FIG. 4A transduced into Jurkat T cells and CAR fluorescence measured 72 hours removal of lentivirus. CAR fluorescence is measured by antibody stain for myc tag fused to CAR extracellular domain. […] Dots represent three independent experiments and errors bars show standard deviation.
Increasing the local concentration of the STUD at the membrane by fusion to a membrane localization domain was tested. […] The surface CAR expression by fluorescence of this antibody stain was measured by flow cytometry.
Membrane targeting STUD: Membrane targeting cells were introduced by lentiviral transduction of two plasmids. […] Cells were then analyzed by flow cytometry. Cells were gated on expression of co-transduction fluorescent proteins (BFP/mCherry) and STUD efficacy was measured by knockdown of CAR/SynNotch. CAR and SynNotch expression was measured by antibody staining for a peptide tag fused to the extracellular domain of the CAR/SynNotch. […]

[2] = tested on: synthetic drug-inducible transcription factor (SynTF) fused to a SynZip; assay: STUD negative feedback circuit regulating SynTF in Jurkat T cells, GFP reporter; type: cell-based; settings: GZV 72 hours at 37 C
From the text: FIG. 6A: STUDs can be composed into negative feedback circuit to regulate synthetic transcription factor (SynTF). Cartoon diagram of plasmids used in negative feedback circuit transduced into Jurkat T cells. Synthetic transcription factors used in this work (grey) are made up of a transcriptional activation domain (AD) and a DNA binding domain (DBD) separated by a NS3 protease. In the absence of the NS3 inhibitor grazoprevir (GZV), the TF is destabilized and non-functional. On the other hand, the addition of GZV stabilizes the TF and allows for transcription of the gene cassette downstream of the SynTF promoter (pSynTF). Three types of circuits were designed: (1) A negative feedback circuit that has the SynTF driving expression of the GFP reporter and the STUD which results in degradation of the SynTF and shut off the circuit. […]
The circuit has three components: (1) a synthetic drug-inducible transcription factor (SynTF) fused to a SynZip, (2) a GFP reporter, and (3) a SynZip STUD that targets the SynTF (FIG. 6A). […] After incubation, we assay for GFP fluorescence by flow cytometry and gate on cells expressing the co-transduction markers (mCherry and tagBFP) for both plasmids relative to a untransduced control. […]

Substance: SynZip STUD: Fusion protein SEQ ID NO: 413: lysine-free modified synZIP18 heterodimerization domain, flexible linker, C-terminal RRRG degron; 55 amino acids (SIAATLENDLARLENENARLERDIANLERDLARLEREEAYFGSGSGSGSGSRRRG)
- degradation of CAR (surface CAR expression) [1]: inefficiently
- inhibition of SynTF (fold change of median GFP relative to DMSO) [2]: inhibits the SynTF
